Source: patent publication US9234230B2, “Screening method and compounds for modulating telomerase activity” (The Wistar Institute, priority 2010, dated 2016)

System: TERT protein
Experiment: Fluorescence polarization binding assay (inhibitory activity of selected Table 9 compounds)
Set-up: species or system Tribolium castaneum
Conditions: TERT-Chim21m complex 250 nM, cyanine 5-dCTP 10 nM, footnote: observed value corresponds to 50% of the actual inhibition value; for Inhibition at 5 μM (%)*: compound 5 μM; for Inhibition at 50 μM (%)*: compound 50 μM
Protocol: The TERT protein was expressed and purified as described herein. Protein was concentrated to 4.72 mg ml-l using an AMICON 30K cutoff filter (Millipore) and stored at −80° C. for binding assays.
For the binding assay, TERT protein was diluted to a 500 nM concentration in a solution of 50 mM Tris-HCl, pH 7.5, 200 mM KCl, and 20% glycerol. A 1.2-fold molar excess of the Chim21m RNA-DNA hybrid (Integrated DNA Technologies), containing the template for telomere extension (5′-rCrUrG rArCrC rUrGrA rCTT CGG TCA GGT-3′; SEQ ID NO:19), was then added to these samples and kept on ice. The cyanine 5-dCTP (Perkin Elmer) for the binding study was made up to a 20 nM concentration in sterile, RNase, DNase free water with […].
Compound screens were carried out as 30.5 μl reactions in a 384-well, round bottom plate (Thermo). Fifteen μl of TERT-Chim21m complex was first added to each well. Then 0.5 μl of library compound (ChemBridge) was added to this solution. Finally, 15 μl of the nucleotide-MgCl2 sample was added, and the solution mixed to provide final concentrations of 250 nM protein-nucleic acid, 10 nM cyanine 5-dCTP, and […]. Final compound concentrations were 50 μM and 5 μM. All additions were completed using a Janus 96/384 Modular Dispensing Tool (Perkin Elmer), performed in triplicate, and equilibrated for 40 minutes. Fluorescence polarization was measured at λex=620 nm and λem=688 nm on an EnVision Xcite Multilabel plate reader (Perkin Elmer). Polarization was calculated using the standard equation: P=(V−H)/(V+H), where P denotes polarization, V denotes vertical emission intensity, and H denotes horizontal emission intensity.

| Structure (SMILES) | Inhibition at 5 μM (%)* [%] | Inhibition at 50 μM (%)* [%] |
| --- | --- | --- |
| Cc1ccc(C(=O)Nn2cnnc2)c(Cl)c1 [2-chloro-4-methyl-N-4H-1,2,4-triazol-4-ylbenzamide] | 10.94 | 29.35 |
| COc1cc(CNc2ccc3[nH]c(=O)[nH]c3c2)cc(Cl)c1OCC(N)=O [2-(2-chloro-6-methoxy-4-{[(2-oxo-2,3-dihydro-1H-benzimidazol-5-yl)amino]methyl}phenoxy)acetamide] | 15.94 | 29.33 |
| CCOc1cc(CNCc2cccnc2)cc(Cl)c1OCC(N)=O.Cl [2-(2-chloro-6-ethoxy-4-{[(3-pyridinylmethyl)amino]methyl}phenoxy)acetamide hydrochloride] | 14.87 | 38.78 |
| CCOC(=O)c1c(NC(=O)/C=C/C(N)=O)sc(C)c1C [ethyl 2-[(4-amino-4-oxo-2-butenoyl)amino]-4,5-dimethyl-3-thiophenecarboxylate] | 19.23 | 39.41 |
| CC(C(=O)Nn1cnnc1)N1C(=O)c2ccccc2C1=O (stereo not drawn) [2-(1,3-dioxo-1,3-dihydro-2H-isoindol-2-yl)-N-4H-1,2,4-triazol-4-ylpropanamide] | 4.74 | 27.38 |
| COc1cc(CNC2C3CC4CC(C3)CC2C4)cc(Cl)c1OCC(N)=O (stereo not drawn) [2-{4-[(2-adamantylamino)methyl]-2-chloro-6-methoxyphenoxy}acetamide] | 13.73 | 35.18 |
| NC(=O)CCN1C(=O)c2cccc3cccc(c23)C1=O [3-(1,3-dioxo-1H-benzo[de]isoquinolin-2(3H)-yl)propanamide] | 18.11 | 36.58 |
| CCOc1cc(CNCc2ccco2)cc(Br)c1OCC(N)=O.Cl [2-(2-bromo-6-ethoxy-4-{[(2-furylmethyl)amino]methyl}phenoxy)acetamide hydrochloride] | 16.14 | 30.92 |
| CC(O)CNC(=O)C(=O)Nc1ccc2c(c1)OCO2 (stereo not drawn) [N-1,3-benzodioxol-5-yl-N′-(2-hydroxypropyl)ethanediamide] | 6.67 | 29.71 |
| COc1cc(CNCc2cccs2)cc(Cl)c1OCC(N)=O.Cl [2-(2-chloro-6-methoxy-4-{[(2-thienylmethyl)amino]methyl}phenoxy)acetamide hydrochloride] | 10.94 | 41.26 |
| COc1cc(CNCc2ccccc2)cc(Cl)c1OCC(N)=O.Cl [2-{4-[(benzylamino)methyl]-2-chloro-6-methoxyphenoxy}acetamide hydrochloride] | 4.96 | 29.96 |
| COc1cc(CNCCN2CCOCC2)cc(Br)c1OCC(N)=O.Cl.Cl [2-[2-bromo-6-methoxy-4-({[2-(4-morpholinyl)ethyl]amino}methyl)phenoxy]acetamide dihydrochloride] | 18.27 | 30.23 |
| CCOc1cc(CNCc2cccs2)cc(Cl)c1OCC(N)=O.Cl [2-(2-chloro-6-ethoxy-4-{[(2-thienylmethyl)amino]methyl}phenoxy)acetamide hydrochloride] | 17.68 | 49.10 |
| CNCc1cc(Cl)c(OCC(N)=O)c(OC)c1.Cl [2-{2-chloro-6-methoxy-4-[(methylamino)methyl]phenoxy}acetamide hydrochloride] | 17.00 | 31.30 |
| COc1cc(CNCc2ccncc2)cc(Cl)c1OCC(N)=O.Cl [2-(2-chloro-6-methoxy-4-{[(4-pyridinylmethyl)amino]methyl}phenoxy)acetamide hydrochloride] | 23.05 | 45.56 |
| O=C(Nn1cnnc1)c1cc(Br)ccc1Cl [5-bromo-2-chloro-N-4H-1,2,4-triazol-4-ylbenzamide] | 11.97 | 30.04 |
| O=C(NCCCO)C1CCCN(S(=O)(=O)c2ccc3ccccc3c2)C1 (stereo not drawn) [N-(3-hydroxypropyl)-1-(2-naphthylsulfonyl)-3-piperidinecarboxamide] | 13.44 | 30.42 |
| COc1cc(CNCCc2ccccc2)cc(Br)c1OCC(N)=O [2-(2-bromo-6-methoxy-4-{[(2-phenylethyl)amino]methyl}phenoxy)acetamide] | 12.21 | 27.65 |
